Assay [1] relates to Cryptococcus neoformans var. grubii clinical isolates and multi-azole resistant strains. As to the kind of experiment: CLSI M27-A3 broth microdilution MIC assay. Conditions: for MIC: Cryptococcus neoformans. It counts as cell-based. An excerpt: Six isolates of cryptococcus were obtained from skin-infected cats and five from systemically infected cats, for a total of 11 strains. One strain of cat skin cryptococcus and one strain of cat systemic cryptococcus were fluconazole-resistant.
(§1) Three isolates of cryptococcus were acquired from skin-infected humans.
(§2) All of the above-acquired isolates were Cryptococcus neoformans var. grubii strains (type A).
(§3) Further, as described below, 3 multidrug-resistant strains resistant to fluconazole (FLCZ) and voriconazole (VRCZ) as azole-based antifungal agents were acquired.
Clinically separated fluconazole (FLCZ) resistant Cryptococcus neoformans cells (2.3×10^5) were inoculated on Sabouraud glucose agar medium containing 3 μg/ml of voriconazole (VRCZ), and cultured at room temperature for 7 days. Thereafter, 12 colonies generated on the plate were inoculated on Sabouraud glucose agar medium containing 5 μg/ml of VRCZ. This was cultured at room temperature for 10 days, and the obtained colonies were further subcultured, to obtain 3 azole-based multidrug-resistant strains.
The strains obtained in Example 1 were maintained on Sabouraud glucose agar medium until the test of sensitivity to antifungal compounds.
Sensitivity to ravuconazole (RVCZ) was determined according to the CLSI M27-A3 guideline using broth microdilution assay. The minimum inhibitory concentration (MIC) was measured after culturing at 35° C. for 72 hours. MIC was defined as the lowest concentration that induces significant inhibition of growth (inhibition of about 50% or more).
CLSI M27-A3 test and E-test MIC assay were performed using Candida parapsilosis ATCC 22019 and Candida kruzei ATCC 6258 purchased from ATCC as controls. As a result, a high correlation was observed between the MIC results of the azole-based drugs obtained in the CLSI M27-A3 test and the E-test, so the results of both were compared.
(In general: Broth dilution looks for growth in wells or tubes with falling amounts of substance.)

The test system is the same in assay [2]. The assay is described as follows: microbe, parasite or virus in culture. It counts as cell-based. The conditions noted are these: E-test; for MIC range: 14 isolates (Nos. 1-14); for MIC: Cryptococcus neoformans.
Text: Six isolates of cryptococcus were obtained from skin-infected cats and five from systemically infected cats, for a total of 11 strains.
as §1, §2, §3
Thereafter, 12 colonies generated on the plate were inoculated on Sabouraud glucose agar medium containing 5 μg/ml of VRCZ. This was cultured at room temperature for 10 days, and the obtained colonies were further subcultured, to obtain 3 azole-based multidrug-resistant strains.
Sensitivity to fluconazole (FLCZ), itraconazole (ITCZ) and voriconazole (VRCZ) was evaluated using the E-test. […] E-test gradient strips were purchased from AB BIODISK. The MICs for FLCZ, ITCZ and VRCZ were determined after culturing at 35° C. for 72 hours. Each isolate was tested twice at shifted times, and each test included twice measurements.

Setting [3] is: 72 h, Strain No. 1, Feline cutaneous cryptococcosis, 35° C.
The mark [4] stands for this setting: 72 h, Strain No. 2, Feline systemic cryptococcosis, 35° C.
Setting [5] is: 72 h, Strain No. 3, Feline systemic cryptococcosis, 35° C.
Setting [6] is: 72 h, Strain No. 4, Feline cutaneous cryptococcosis, 35° C.
Where [7] appears, read: 72 h, Strain No. 5, Feline cutaneous cryptococcosis, 35° C.
The mark [8] stands for this setting: 72 h, Strain No. 6, Feline systemic cryptococcosis, 35° C.
The mark [9] stands for this setting: 72 h, Strain No. 7, Feline systemic cryptococcosis, 35° C.
Setting [10] is: 72 h, Strain No. 8 (FLCZ resistant strain), Feline systemic cryptococcosis, 35° C.
Where [11] appears, read: 72 h, Strain No. 9, Feline systemic cryptococcosis, 35° C.
[12] abbreviates: 72 h, Strain No. 10, Feline cutaneous cryptococcosis, 35° C.
The mark [13] stands for this setting: 72 h, Strain No. 11, Human cutaneous cryptococcosis, 35° C.
Setting [14] is: 72 h, Strain No. 12, Human cutaneous cryptococcosis, 35° C.
[15] abbreviates: 72 h, Strain No. 13, Human cutaneous cryptococcosis, 35° C.
The mark [16] stands for this setting: 72 h, Strain No. 14 (FLCZ resistant strain), Feline cutaneous cryptococcosis, 35° C.
The mark [17] stands for this setting: 72 h, Strain No. 15, Multi-azole resistance strain, 35° C.
The mark [18] stands for this setting: 72 h, Strain No. 16, Multi-azole resistance strain, 35° C.
Setting [19] is: 72 h, Strain No. 17, Multi-azole resistance strain, 35° C.
Where [20] appears, read: azole-based multidrug-resistant strains (Nos. 15-17).
Setting [21] is: read-out: average MIC, 14 isolates (Nos. 1-14).

In brackets after ≈: the same amount, converted by molar mass.

Experimental findings from patent US12121512B2, “Anti-fungal agent” (priority 2019, dated 2024) are described below.

Turning to `C[C@@H](c1nc(-c2ccc(C#N)cc2)cs1)[C@](O)(Cn1cncn1)c1ccc(F)cc1F` [RVCZ, ravuconazole], the MIC range in assay [1] (14 isolates (Nos. 1-14), CLSI M27-A3) was <0.003125 to 0.25 µg/mL. Further, the MIC turned out to be 0.0312 µg/mL (≈ 0.0714 µM) in assay [1] (72 h, Strain No. 1, Feline cutaneous cryptococcosis, CLSI M27-A3, 35° C.); 0.0312 µg/mL (≈ 0.0714 µM) in assay [1] (72 h, Strain No. 2, Feline systemic cryptococcosis, CLSI M27-A3, 35° C.); 0.0312 µg/mL (≈ 0.0714 µM) in assay [1] (72 h, Strain No. 3, Feline systemic cryptococcosis, CLSI M27-A3, 35° C.); 0.0625 µg/mL (≈ 0.143 µM) in assay [1] (72 h, Strain No. 4, Feline cutaneous cryptococcosis, CLSI M27-A3, 35° C.); 0.0625 µg/mL (≈ 0.143 µM) in assay [1] (72 h, Strain No. 5, Feline cutaneous cryptococcosis, CLSI M27-A3, 35° C.); 0.125 µg/mL (≈ 0.286 µM) in assay [1] (72 h, Strain No. 6, Feline systemic cryptococcosis, CLSI M27-A3, 35° C.). The MIC in assay [1] (72 h, Strain No. 7, Feline systemic cryptococcosis, CLSI M27-A3, 35° C.) amounted to 0.0625 µg/mL (≈ 0.143 µM); in assay [1] (72 h, Strain No. 8 (FLCZ resistant strain), Feline systemic cryptococcosis, CLSI M27-A3, 35° C.), 0.125 µg/mL (≈ 0.286 µM); in assay [1] (72 h, Strain No. 9, Feline systemic cryptococcosis, CLSI M27-A3, 35° C.), 0.0312 µg/mL (≈ 0.0714 µM); in assay [1] (72 h, Strain No. 10, Feline cutaneous cryptococcosis, CLSI M27-A3, 35° C.), 0.125 µg/mL (≈ 0.286 µM); in assay [1] (72 h, Strain No. 11, Human cutaneous cryptococcosis, CLSI M27-A3, 35° C.), 0.0312 µg/mL (≈ 0.0714 µM); in assay [1] (72 h, Strain No. 12, Human cutaneous cryptococcosis, CLSI M27-A3, 35° C.), 0.0312 µg/mL (≈ 0.0714 µM). The MIC in assay [1] (72 h, Strain No. 13, Human cutaneous cryptococcosis, CLSI M27-A3, 35° C.) was 0.0312 µg/mL (≈ 0.0714 µM); in assay [1] (72 h, Strain No. 14 (FLCZ resistant strain), Feline cutaneous cryptococcosis, CLSI M27-A3, 35° C.), 0.125 µg/mL (≈ 0.286 µM); in assay [1] (72 h, Strain No. 15, Multi-azole resistance strain, CLSI M27-A3, 35° C.) it was 0.5 µg/mL (≈ 1.14 µM); in assay [1] (72 h, Strain No. 16, Multi-azole resistance strain, CLSI M27-A3, 35° C.), 0.5 µg/mL (≈ 1.14 µM); in assay [1] (72 h, Strain No. 17, Multi-azole resistance strain, CLSI M27-A3, 35° C.), 0.25 µg/mL (≈ 0.571 µM); in assay [1] (azole-based multidrug-resistant strains (Nos. 15-17), CLSI M27-A3) it was 0.25 to 0.5 µg/mL (≈ 0.571 to 1.14 µM). Further, the MIC in assay [1] (read-out: average MIC, 14 isolates (Nos. 1-14), CLSI M27-A3) was determined as 0.0376 µg/mL (≈ 0.0859 µM).
With `OC(Cn1cncn1)(Cn1cncn1)c1ccc(F)cc1F` [FLCZ, fluconazole], the MIC range in assay [2] is <0.016 to 128 µg/mL. Moreover, the MIC in assay [2] (setting [3]) was 3 µg/mL (≈ 9.8 µM); in assay [2] (setting [4]), < 0.016 µg/mL; in assay [2] (setting [5]), 6 µg/mL (≈ 19.6 µM); in assay [2] (setting [6]), 16 µg/mL (≈ 52.2 µM); in assay [2] (setting [7]), 32 µg/mL (≈ 104 µM); in assay [2] (setting [8]), 2 µg/mL (≈ 6.53 µM). Moreover, the MIC was 1.5 µg/mL (≈ 4.9 µM) in assay [2] (setting [9]); > 256 µg/mL in assay [2] (setting [10]); 1.5 µg/mL (≈ 4.9 µM) in assay [2] (setting [11]); 14 µg/mL (≈ 45.7 µM) in assay [2] (setting [12]); 1.5 µg/mL (≈ 4.9 µM) in assay [2] (setting [13]); 1.5 µg/mL (≈ 4.9 µM) in assay [2] (setting [14]). Besides, the MIC was 0.75 µg/mL (≈ 2.45 µM) in assay [2] (setting [15]); 128 µg/mL (≈ 418 µM) in assay [2] (setting [16]); > 256 µg/mL in assay [2] (setting [17]); > 256 µg/mL in assay [2] (setting [18]); > 256 µg/mL in assay [2] (setting [19]); > 256 µg/mL in assay [2] (setting [20]). Also, the MIC in assay [2] (setting [21]) came out at 17.3 µg/mL (≈ 56.5 µM).
Turning to `C[C@@H](c1ncncc1F)[C@](O)(Cn1cncn1)c1ccc(F)cc1F` [VRCZ, voriconazole], in assay [2], the MIC range is <0.002 to 0.125 µg/mL. Moreover, the MIC is 0.008 µg/mL (≈ 0.0229 µM) in assay [2] (setting [3]); < 0.002 µg/mL in assay [2] (setting [4]); 0.032 µg/mL (≈ 0.0916 µM) in assay [2] (setting [5]); 0.064 µg/mL (≈ 0.183 µM) in assay [2] (setting [6]); 0.047 µg/mL (≈ 0.135 µM) in assay [2] (setting [8]); 0.032 µg/mL (≈ 0.0916 µM) in assay [2] (setting [9]). Besides, the MIC came out at 0.094 µg/mL (≈ 0.269 µM) in assay [2] (setting [10]); 0.012 µg/mL (≈ 0.0344 µM) in assay [2] (setting [11]); 0.023 µg/mL (≈ 0.0658 µM) in assay [2] (setting [12]); 0.003 µg/mL (≈ 0.00859 µM) in assay [2] (setting [13]); 0.006 µg/mL (≈ 0.0172 µM) in assay [2] (setting [14]); 0.003 µg/mL (≈ 0.00859 µM) in assay [2] (setting [15]). Besides, the MIC in assay [2] (setting [16]) was 0.023 µg/mL (≈ 0.0658 µM); in assay [2] (setting [17]), 12 µg/mL (≈ 34.4 µM); in assay [2] (setting [18]), 8 µg/mL (≈ 22.9 µM); in assay [2] (setting [19]), 6 µg/mL (≈ 17.2 µM); in assay [2] (setting [20]) it was 6 to 12 µg/mL (≈ 17.2 to 34.4 µM); in assay [2] (setting [21]), 0.036 µg/mL (≈ 0.103 µM).
For the compound `CCC(C)n1ncn(-c2ccc(N3CCN(c4ccc(OCC5COC(Cn6cncn6)(c6ccc(Cl)cc6Cl)O5)cc4)CC3)cc2)c1=O` (stereo not shown) [ITCZ, itraconazole], in assay [2], the MIC range was <0.002 to 0.75 µg/mL. Moreover, the MIC in assay [2] (setting [3]) turned out to be 0.047 µg/mL (≈ 0.0666 µM); in assay [2] (setting [4]) it was 0.002 µg/mL (≈ 0.00283 µM); in assay [2] (setting [5]) it was 0.23 µg/mL (≈ 0.326 µM); in assay [2] (setting [6]), 0.018 µg/mL (≈ 0.0255 µM); in assay [2] (setting [7]), 0.5 µg/mL (≈ 0.709 µM); in assay [2] (setting [8]) it was 0.064 µg/mL (≈ 0.0907 µM). Moreover, the MIC was determined as 0.38 µg/mL (≈ 0.539 µM) in assay [2] (setting [9]); 0.25 µg/mL (≈ 0.354 µM) in assay [2] (setting [10]); 0.23 µg/mL (≈ 0.326 µM) in assay [2] (setting [11]); 0.75 µg/mL (≈ 1.06 µM) in assay [2] (setting [12]); 0.19 µg/mL (≈ 0.269 µM) in assay [2] (setting [13]); 0.125 µg/mL (≈ 0.177 µM) in assay [2] (setting [14]). Also, the MIC in assay [2] (setting [15]) is 0.125 µg/mL (≈ 0.177 µM); in assay [2] (setting [16]) it was 0.38 µg/mL (≈ 0.539 µM); in assay [2] (setting [17]), > 32 µg/mL; in assay [2] (setting [18]) it was > 32 µg/mL; in assay [2] (setting [19]), > 32 µg/mL; in assay [2] (setting [20]), > 32 µg/mL. Besides, the MIC in assay [2] (setting [21]) amounted to 0.235 µg/mL (≈ 0.333 µM).
